These results are taken from US4465673A, “Pentagalloylglucose antiviral composition” (Tanaka; Yasuo, priority 1983, dated 1984).

One data set deals with herpes simplex virus. The data set is described as follows: Antiviral activity against herpes simplex virus in FL cells (multinucleated giant cell formation). Format: cell-based. The following applies: FL cell monolayers, sample added 1 h after virus, 36° C., 5% carbon dioxide, 24 hours incubation. How it is done:
Antiviral activity of 1,2,3,4,6-pentagalloylglucose against herpes simplex virus was assayed. Procedure:
Monolayers were prepared from dispersed FL cells in Petri dishes of diameter 35 mm, 24 hours prior to the assay. On carrying out the assay, the medium in each dish was poured off and each dish received 1 ml of medium containing herpes simplex virus. The dishes were incubated at 36° C. in a humidified atmosphere containing 5% of gaseous carbon dioxide. After an hour, each dish further received 1 ml of medium and 20-200 μl of an aqueous 1,2,3,4,6-pentagalloylglucose solution. Incubation was continued for 24 hours and then all the dishes were inspected for multinucleated giant cell. Antiviral activity was defined as the minimum concentration of sample at which no multinucleated giant cell appeared.

A further data set is described as follows: Acute toxicity in rats. Format: in vivo. The following applies: in a usual manner. How it is done:
Acute toxicity of 1,2,3,4 6-pentagalloylglucose was assayed using rats in a usual manner.

Consider “1,2,3,4,6-pentagalloylglucose [Product of Example 1]”, for which the “Antiviral activity (minimum concentration of sample at which no multinucleated giant cell appeared)” value with herpes simplex virus amounted to 26 µg/mL.
`O=C(OCC1OC(OC(=O)c2cc(O)c(O)c(O)c2)C(OC(=O)c2cc(O)c(O)c(O)c2)C(OC(=O)c2cc(O)c(O)c(O)c2)C1OC(=O)c1cc(O)c(O)c(O)c1)c1cc(O)c(O)c(O)c1` (stereo not drawn) [1,2,3,4,6-pentagalloylglucose]: in the data set with herpes simplex virus (read-out: Antiviral activity (minimum concentration of sample at which no multinucleated giant cell appeared)), the minimal effective concentration was determined as 25 µg/mL. Further, the Acute toxicity entry in the data set “Acute toxicity in rats” is “extremely low”.
